Reference: PubChem BioAssay (NCI)
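Results reflect a 48-hour exposure of cells in 96-well plates to compound at five concentrations. TGI: total growth inhibition.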

Legend:
Assay in all cases: NCI-60 cell line screen, 48 h
[1] = test system: COLO 205 colon
[2] = test system: OVCAR-5 ovarian
[3] = test system: HCC-2998 colon
[4] = test system: CCRF-CEM leukemia
[5] = test system: NCI-H23 lung
[6] = test system: DMS 114 small cell lung
[7] = test system: UACC-257 melanoma
[8] = test system: K-562 leukemia
[9] = test system: SK-OV-3 ovarian
[10] = test system: UACC-62 melanoma
[11] = test system: DLD-1 colon
[12] = test system: SK-MEL-5 melanoma
[13] = test system: OVCAR-3 ovarian
[14] = test system: 786-0 renal
[15] = test system: IGROV1 ovarian
[16] = test system: OVCAR-4 ovarian
[17] = test system: NCI-H460 lung
[18] = test system: MALME-3M melanoma
[19] = test system: KM12 colon
[20] = test system: RPMI-8226 leukemia
[21] = test system: HCT-15 colon
[22] = test system: SN12C renal
[23] = test system: A498 renal
[24] = test system: SW-620 colon
[25] = test system: SF-539 CNS
[26] = test system: SK-MEL-2 melanoma
[27] = test system: M19-MEL melanoma
[28] = test system: DMS 273 small cell lung
[29] = test system: SK-MEL-28 melanoma
[30] = test system: SNB-75 CNS
[31] = test system: HOP-92 NSCLC
[32] = test system: HCT-116 colon
[33] = test system: M14 melanoma
[34] = test system: XF 498 CNS
[35] = test system: SNB-19 CNS
[36] = test system: MOLT-4 leukemia
[37] = test system: RXF-631 renal
[38] = test system: OVCAR-8 ovarian
[39] = test system: HOP-18 NSCLC
[40] = test system: TK-10 renal
[41] = test system: KM20L2 colon
[42] = test system: HT29 colon
[43] = test system: U251 CNS
[44] = test system: NCI-H226 lung
[45] = test system: CAKI-1 renal
[46] = test system: EKVX NSCLC
[47] = test system: ACHN renal
[48] = test system: SF-268 CNS
[49] = test system: SF-295 CNS
[50] = test system: UO-31 renal
[51] = test system: A549 NSCLC
[52] = test system: LOX IMVI melanoma
[53] = test system: HOP-62 NSCLC
[54] = test system: SNB-78 CNS
[55] = test system: HL-60(TB) leukemia
[56] = test system: LXFL 529 NSCLC
[57] = test system: NCI-H522 lung
[58] = test system: RXF 393 renal
[59] = test system: SR leukemia

COc1ccc(/C=C2\C(=O)N(NC(C)=O)c3ccccc32)cc1
TGI [1]: > 100 µM | TGI [2]: > 100 µM | TGI [3]: > 100 µM | TGI [4]: > 100 µM | TGI [5]: > 100 µM | TGI [6]: > 100 µM | TGI [7]: > 100 µM | TGI [8]: > 100 µM | TGI [9]: > 100 µM | TGI [10]: > 100 µM | TGI [11]: > 100 µM | TGI [12]: > 100 µM | TGI [13]: > 100 µM | TGI [14]: > 100 µM | TGI [15]: > 100 µM | TGI [16]: > 100 µM | TGI [17]: > 100 µM | TGI [18]: > 100 µM | TGI [19]: > 100 µM | TGI [20]: > 100 µM | TGI [21]: > 100 µM | TGI [22]: > 100 µM | TGI [23]: > 100 µM | TGI [24]: > 100 µM | TGI [25]: > 100 µM | TGI [26]: > 100 µM | TGI [27]: > 100 µM | TGI [28]: > 100 µM | TGI [29]: > 100 µM | TGI [30]: 93.8 µM | TGI [31]: > 100 µM | TGI [32]: > 100 µM | TGI [33]: > 100 µM | TGI [34]: > 100 µM | TGI [35]: > 100 µM | TGI [36]: > 100 µM | TGI [37]: > 100 µM | TGI [38]: > 100 µM | TGI [39]: > 100 µM | TGI [40]: > 100 µM | TGI [41]: > 100 µM | TGI [42]: > 100 µM | TGI [43]: > 100 µM | TGI [44]: > 100 µM | TGI [45]: > 100 µM | TGI [46]: > 100 µM | TGI [47]: > 100 µM | TGI [48]: > 100 µM | TGI [49]: > 100 µM | TGI [50]: > 100 µM | TGI [51]: > 100 µM | TGI [52]: > 100 µM | TGI [53]: > 100 µM | TGI [54]: > 100 µM

Cc1nc2ccccc2c(=O)n1/N=C(\N=Nc1ccccc1Cl)c1ccccc1Cl
TGI [1]: > 100 µM | TGI [55]: > 100 µM | TGI [4]: > 100 µM | TGI [5]: > 100 µM | TGI [6]: > 100 µM | TGI [8]: > 100 µM | TGI [9]: 64.4 µM | TGI [10]: > 100 µM | TGI [11]: > 100 µM | TGI [12]: > 100 µM | TGI [14]: > 100 µM | TGI [15]: > 100 µM | TGI [17]: > 100 µM | TGI [20]: > 100 µM | TGI [21]: > 100 µM | TGI [22]: > 100 µM | TGI [23]: > 100 µM | TGI [24]: > 100 µM | TGI [25]: > 100 µM | TGI [27]: > 100 µM | TGI [28]: > 100 µM | TGI [29]: > 100 µM | TGI [31]: 43.7 µM | TGI [32]: > 100 µM | TGI [33]: > 100 µM | TGI [34]: 26.8 µM | TGI [36]: > 100 µM | TGI [37]: > 100 µM | TGI [38]: > 100 µM | TGI [39]: > 100 µM | TGI [40]: > 100 µM | TGI [41]: > 100 µM | TGI [42]: > 100 µM | TGI [43]: > 100 µM | TGI [45]: 63.4 µM | TGI [46]: > 100 µM | TGI [56]: > 100 µM | TGI [47]: > 100 µM | TGI [48]: > 100 µM | TGI [50]: > 100 µM | TGI [51]: > 100 µM | TGI [52]: > 100 µM | TGI [57]: 98.4 µM | TGI [53]: > 100 µM | TGI [58]: 40.5 µM

CCOC(=O)c1ccc(N=Nc2ccc(N(CCC#N)CCC#N)cc2C)cc1
TGI [1]: > 100 µM | TGI [55]: > 100 µM | TGI [2]: > 100 µM | TGI [3]: > 100 µM | TGI [4]: > 100 µM | TGI [5]: > 100 µM | TGI [6]: > 100 µM | TGI [7]: > 100 µM | TGI [8]: > 100 µM | TGI [9]: > 100 µM | TGI [10]: > 100 µM | TGI [11]: > 100 µM | TGI [12]: > 100 µM | TGI [13]: > 100 µM | TGI [14]: > 100 µM | TGI [15]: > 100 µM | TGI [16]: > 100 µM | TGI [18]: > 100 µM | TGI [19]: > 100 µM | TGI [20]: > 100 µM | TGI [21]: > 100 µM | TGI [22]: > 100 µM | TGI [23]: > 100 µM | TGI [24]: > 100 µM | TGI [25]: > 100 µM | TGI [26]: > 100 µM | TGI [27]: > 100 µM | TGI [28]: > 100 µM | TGI [33]: > 100 µM | TGI [35]: > 100 µM | TGI [36]: > 100 µM | TGI [37]: > 100 µM | TGI [38]: > 100 µM | TGI [39]: > 100 µM | TGI [40]: > 100 µM | TGI [42]: > 100 µM | TGI [43]: > 100 µM | TGI [44]: > 100 µM | TGI [45]: > 100 µM | TGI [46]: > 100 µM | TGI [56]: > 100 µM | TGI [47]: > 100 µM | TGI [49]: > 100 µM | TGI [50]: > 100 µM | TGI [51]: > 100 µM | TGI [52]: > 100 µM | TGI [57]: > 100 µM | TGI [53]: > 100 µM | TGI [54]: > 100 µM | TGI [58]: > 100 µM

CCOC(=O)C1(C)CCC(C(C(=O)O)C(=O)O)CC1=O (centres undefined)
TGI [1]: > 100 µM | TGI [55]: > 100 µM | TGI [2]: > 100 µM | TGI [3]: > 100 µM | TGI [4]: > 100 µM | TGI [6]: > 100 µM | TGI [7]: > 100 µM | TGI [9]: > 100 µM | TGI [10]: > 100 µM | TGI [11]: > 100 µM | TGI [12]: > 100 µM | TGI [13]: > 100 µM | TGI [14]: > 100 µM | TGI [15]: > 100 µM | TGI [16]: > 100 µM | TGI [17]: > 100 µM | TGI [18]: > 100 µM | TGI [19]: > 100 µM | TGI [20]: > 100 µM | TGI [21]: > 100 µM | TGI [22]: > 100 µM | TGI [23]: > 100 µM | TGI [24]: > 100 µM | TGI [25]: > 100 µM | TGI [27]: > 100 µM | TGI [28]: > 100 µM | TGI [29]: > 100 µM | TGI [30]: > 100 µM | TGI [31]: > 100 µM | TGI [32]: > 100 µM | TGI [33]: > 100 µM | TGI [35]: > 100 µM | TGI [36]: > 100 µM | TGI [37]: > 100 µM | TGI [38]: > 100 µM | TGI [39]: > 100 µM | TGI [40]: > 100 µM | TGI [41]: > 100 µM | TGI [42]: > 100 µM | TGI [43]: > 100 µM | TGI [44]: > 100 µM | TGI [45]: > 100 µM | TGI [46]: > 100 µM | TGI [56]: > 100 µM | TGI [47]: > 100 µM | TGI [48]: > 100 µM | TGI [49]: > 100 µM | TGI [50]: > 100 µM | TGI [51]: > 100 µM | TGI [52]: > 100 µM | TGI [57]: > 100 µM | TGI [53]: > 100 µM | TGI [54]: > 100 µM | TGI [59]: > 100 µM | TGI [58]: > 100 µM
